This note sets out measurements from ChEMBL document CHEMBL1201862, “PubChem BioAssay data set” (2004).

Activity calls are given as the source filed them.

For assay [1], the target named is Glycogen synthase kinase-3 alpha (Homo sapiens, UniProt P49840). As to the kind of experiment: Inhibition of Human GSK-3 alpha Activity Measured in Biochemical System Using Microfluidics - 2063-06_Inhibitor_Dose_DryPowder_Activity_Set2. [Related pubchem assays (depositor defined):AID2709].
Assay [2] has as its target Glycogen synthase kinase-3 beta (Homo sapiens, UniProt P49841). In words: Inhibition of Human GSK-3 beta Activity Measured in Biochemical System Using Microfluidics - 2063-05_Inhibitor_Dose_DryPowder_Activity_Set2. [Related pubchem assays (depositor defined):AID2709].
For assay [3], the target named is Cyclin-dependent kinase 5/CDK5 activator 1 (Homo sapiens, UniProt Q00535). As to the kind of experiment: CDK5-p25 kinase inhibitors, specificity check, dose response, selectivity assay for GSK-3 alpha inhibitor project, biochemical, microfluidic mobility shift, dry powder (AID 588430).
Assay [4] deals with 26S proteasome non-ATPase regulatory subunit 14 (Homo sapiens, UniProt O00487). In words: inhibition of proteasome subunit RPN11 – biochemical, fluorescence polarization, uHTS hits, confirmation (AID 602368). The assay is classed as functional. (In general: In fluorescence polarisation assays a small probe gives low polarisation when free and higher when bound to something large.)

The target of assay [5] is 72 kDa type IV collagenase (Homo sapiens, UniProt P08253). In words: Dose Response validation of uHTS RPN11 inhibitor hits using a MMP-2 Fluorescence assay. The assay is classed as functional.
In the next assay the target is Prothrombin (Bos taurus, UniProt P00735). In words: thrombin inhibition, dose response, biochemical, fluorescence polarization, uHTS hits (AID 602369). The assay is classed as functional.
Assay [6] relates to Candida albicans. In words: growth inhibition of azole-resistant C. albicans, dose response, CaCi-8 strain, Alamar Blue, dry powder, set 3 (AID 488905). The assay is classed as functional, organism-based. (In general: The colour change of resazurin is a common sign of viable cells or microbes.)
In assay [7] the test system is Candida albicans. As to the kind of experiment: reversal of fluconazole resistance in C. albicans, dose response, CaCi-2 strain, Alamar Blue, dry powder, set 3 (AID 488907). Type of assay: functional, organism-based.
In a further assay the test system is CHO-K1. In words: Counterscreen for antagonists of the orexin 1 receptor (OX1R; HCRTR1): Homogeneous time resolved fluorescence (HTRF)-based cell-based dose response assay to identify antagonists of the parental CHO-K1 cell line. [Related pubchem assays (depositor defined):AID434989, AID435008, AID463079, AID485270, AID492963, AID492964, AID492965, AID493232, AID504699, AID504701]. Type of assay: functional. The settings on record: Cricetulus griseus.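 Note: potency for inhibition of ATP-stimulated IP1 production as antagonists.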

A short description of assay [8]: Counterscreen for antagonists of the orexin 1 receptor (OX1R; HCRTR1): Fluorescence-based cell-based high throughput dose response assay to identify antagonists of the parental CHO cell line. [Related pubchem assays (depositor defined):AID434989, AID435008, AID463079, AID485270, AID492963, AID492964, AID492965, AID493232, AID504699, AID504701]. The assay is classed as functional. (In general: The purpose of a counterscreen is to sort out artefacts and off-target activity.)

The target of assay [9] is T1, Orexin/Hypocretin receptor type 1 (Homo sapiens, UniProt O43613).
T1 sequence (O43613 whole entry): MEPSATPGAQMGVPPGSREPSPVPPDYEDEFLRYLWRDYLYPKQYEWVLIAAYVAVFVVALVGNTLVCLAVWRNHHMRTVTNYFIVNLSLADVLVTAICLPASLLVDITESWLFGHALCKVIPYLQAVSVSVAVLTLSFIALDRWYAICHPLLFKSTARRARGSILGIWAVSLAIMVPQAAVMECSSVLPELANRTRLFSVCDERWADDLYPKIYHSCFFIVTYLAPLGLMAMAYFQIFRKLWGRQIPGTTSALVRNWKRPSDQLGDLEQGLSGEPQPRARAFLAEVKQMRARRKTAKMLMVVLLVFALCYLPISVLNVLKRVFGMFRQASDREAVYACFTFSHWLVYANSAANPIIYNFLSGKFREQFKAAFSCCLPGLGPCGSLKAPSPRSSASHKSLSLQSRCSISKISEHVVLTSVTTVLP
As to the kind of experiment: Homogeneous Time Resolved Fluorescence (HTRF)-based cell-based high throughput dose response assay for antagonists of the orexin 1 receptor (OX1R; HCRTR1). [Related pubchem assays (depositor defined):AID434989, AID435008, AID463079, AID485270, AID492963, AID492964, AID492965, AID493232, AID504717, AID504718]. The assay is classed as functional.

Assay [10] concerns the target T1, Orexin/Hypocretin receptor type 1. In words: Fluorescence-based cell-based high throughput dose response assay for antagonists of the orexin 1 receptor (OX1R; HCRTR1). [Related pubchem assays (depositor defined):AID434989, AID435008, AID463079, AID485270, AID492963, AID492964, AID492965, AID493232, AID504717, AID504718]. The assay is classed as functional.
The target in assay [11] is T2, Polyadenylate-binding protein 1 (Homo sapiens, UniProt P11940). In words: PABP1 MLLE–PAM2 interaction inhibitors, dose response, miRNA deadenylation inhibitor project, biochemical, fluorescence polarization, Cy5-PAM2 peptide, secondary (AID 602260). The settings on record: read-out: IC50_Mean. Type of assay: functional.
Assay [12] concerns the target T2, Polyadenylate-binding protein 1. As to the kind of experiment: PABP1 MLLE–PAM2 binding inhibitor potency, dose response, biochemical, fluorescence polarization, FITC-PAM2 peptide (AID 602259). Type of assay: functional. The note with it: read-out: IC50_Mean.
Assay [13] addresses T3, Orexin receptor type 2 (Homo sapiens, UniProt O43614). In words: Counterscreen assay for antagonists of the orexin 1 receptor (OX1R; HCRTR1): Fluorescence-based cell-based dose response assay for antagonists of the orexin 2 receptor (OX2R; HCRTR2), run by assay provider. The assay is classed as functional.
The target of assay [14] is T3, Orexin receptor type 2. In words: Counterscreen assay for antagonists of the orexin 1 receptor (OX1R; HCRTR1): Homogeneous Time Resolved Fluorescence (HTRF)-based cell-based dose response assay for antagonists of the orexin 2 receptor (OX2R; HCRTR2), run by assay provider. The assay is classed as functional.
The target of assay [15] is Cyclin-dependent kinase 2 (Homo sapiens, UniProt P24941). In words: CDK2 kinase inhibitors, off-target check, dose response, selectivity assay for Dyrk1A inhibitor project, biochemical, cherry-picked samples (AID 602127).
In assay [16] the target is Dual specificity protein kinase CLK1 (Homo sapiens, UniProt P49759). As to the kind of experiment: CLK1 kinase inhibitors, off-target check, dose response, selectivity assay for Dyrk1A inhibitor project, biochemical, cherry-picked samples (AID 588811).
In assay [17] the target is T4, Sphingosine 1-phosphate receptor 2 (Homo sapiens, UniProt O95136). In words: Late-stage fluorescence-based dose-response cell-based counterscreen assay to identify agonists of the Sphingosine 1-Phosphate Receptor 3 (S1P3): Sphingosine 1-Phosphate Receptor 2 (S1P2) agonist assay. The assay is classed as functional.
The target in assay [18] is Sphingosine 1-phosphate receptor 4 (Homo sapiens, UniProt O95977). In words: Late-stage fluorescence-based dose-response cell-based counterscreen assay to identify agonists of the Sphingosine 1-Phosphate Receptor 3 (S1P3): Sphingosine 1-Phosphate Receptor 4 (S1P4) agonist assay. The assay is classed as functional.
The target of assay [19] is DNA dC->dU-editing enzyme APOBEC-3G (Homo sapiens, UniProt Q9HC16). In words: APOBEC3G deaminase inhibitors, SAR follow-up, biochemical, fluorescence, single-stranded DNA substrate (AID 602136). The settings on record: read-out: IC50_Mean. The assay is classed as functional.
The target of assay [20] is DNA dC->dU-editing enzyme APOBEC-3A (Homo sapiens, UniProt P31941). As to the kind of experiment: SAR analysis of small molecule inhibitors of APOBEC3A DNA Deaminase via a fluorescence-based single-stranded DNA deaminase assay. The assay is classed as functional. The note with it: read-out: IC50_Mean.
Assay [21] deals with Sphingosine 1-phosphate receptor 1 (Homo sapiens, UniProt P21453). In words: Late-stage fluorescence-based dose-response cell-based counterscreen assay to identify agonists of the Sphingosine 1-Phosphate Receptor 4 (S1P4): Sphingosine 1-Phosphate Receptor 1 (S1P1) agonist assay Set 2. The assay is classed as functional.
Assay [22] has as its target Sphingosine 1-phosphate receptor 5 (Homo sapiens, UniProt Q9H228). As to the kind of experiment: S1P5 receptor agonists, human, late-stage follow-up, counter-screen for S1P4 agonist project, cell-based, fluorescence, set 2 (AID 504867). Type of assay: functional.
The target of assay [23] is Sphingosine 1-phosphate receptor 3 (Homo sapiens, UniProt Q99500). As to the kind of experiment: Late-stage fluorescence-based dose-response cell-based counterscreen assay to identify agonists of the Sphingosine 1-Phosphate Receptor 4 (S1P4): Sphingosine 1-Phosphate Receptor 3 (S1P3) agonist assay Set 2. The assay is classed as functional.
The target in assay [24] is T4, Sphingosine 1-phosphate receptor 2. As to the kind of experiment: S1P2 receptor agonists, human, late-stage follow-up, counter-screen for S1P4 agonist project, cell-based, fluorescence, set 2 (AID 504873). The assay is classed as functional.

T2 sequence (P11940 whole entry): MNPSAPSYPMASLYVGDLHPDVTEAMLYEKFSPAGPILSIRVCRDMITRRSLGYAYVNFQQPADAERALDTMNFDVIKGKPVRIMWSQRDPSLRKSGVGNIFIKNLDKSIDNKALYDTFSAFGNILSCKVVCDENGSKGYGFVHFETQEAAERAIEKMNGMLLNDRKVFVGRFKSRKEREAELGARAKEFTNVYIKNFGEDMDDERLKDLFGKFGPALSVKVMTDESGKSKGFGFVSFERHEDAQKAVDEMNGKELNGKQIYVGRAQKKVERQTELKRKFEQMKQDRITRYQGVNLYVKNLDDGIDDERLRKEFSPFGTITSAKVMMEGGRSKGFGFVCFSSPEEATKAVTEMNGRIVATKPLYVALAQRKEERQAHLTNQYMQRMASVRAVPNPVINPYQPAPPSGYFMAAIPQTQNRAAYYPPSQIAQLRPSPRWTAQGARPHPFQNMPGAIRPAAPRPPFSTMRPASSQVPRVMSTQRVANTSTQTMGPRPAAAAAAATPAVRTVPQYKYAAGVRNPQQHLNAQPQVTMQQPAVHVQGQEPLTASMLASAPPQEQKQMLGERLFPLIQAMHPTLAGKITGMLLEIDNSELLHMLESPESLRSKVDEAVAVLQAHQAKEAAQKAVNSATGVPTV
T4 sequence (O95136 whole entry): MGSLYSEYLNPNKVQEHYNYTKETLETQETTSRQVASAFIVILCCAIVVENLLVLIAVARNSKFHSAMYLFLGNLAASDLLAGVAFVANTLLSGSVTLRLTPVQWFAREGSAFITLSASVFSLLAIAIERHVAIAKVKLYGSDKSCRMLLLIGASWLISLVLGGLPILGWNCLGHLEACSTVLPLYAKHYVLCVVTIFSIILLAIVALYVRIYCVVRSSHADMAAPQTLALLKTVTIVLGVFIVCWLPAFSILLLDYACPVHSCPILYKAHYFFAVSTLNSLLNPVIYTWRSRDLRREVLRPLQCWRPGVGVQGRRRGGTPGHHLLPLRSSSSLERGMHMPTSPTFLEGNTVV
T3 sequence (O43614 whole entry): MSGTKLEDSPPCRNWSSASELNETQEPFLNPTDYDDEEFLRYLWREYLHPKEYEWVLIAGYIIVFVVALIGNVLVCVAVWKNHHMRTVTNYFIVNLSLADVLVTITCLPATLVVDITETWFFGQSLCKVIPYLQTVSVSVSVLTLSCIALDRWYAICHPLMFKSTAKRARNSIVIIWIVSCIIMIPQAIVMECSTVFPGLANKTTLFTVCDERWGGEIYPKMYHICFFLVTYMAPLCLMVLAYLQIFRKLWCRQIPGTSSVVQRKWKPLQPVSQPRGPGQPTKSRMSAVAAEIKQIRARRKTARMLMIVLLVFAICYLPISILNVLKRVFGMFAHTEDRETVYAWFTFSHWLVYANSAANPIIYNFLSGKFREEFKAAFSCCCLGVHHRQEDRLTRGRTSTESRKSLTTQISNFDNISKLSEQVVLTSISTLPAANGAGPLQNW
DNA dC->dU-editing enzyme APOBEC-3G, sequence (Q9HC16 whole entry): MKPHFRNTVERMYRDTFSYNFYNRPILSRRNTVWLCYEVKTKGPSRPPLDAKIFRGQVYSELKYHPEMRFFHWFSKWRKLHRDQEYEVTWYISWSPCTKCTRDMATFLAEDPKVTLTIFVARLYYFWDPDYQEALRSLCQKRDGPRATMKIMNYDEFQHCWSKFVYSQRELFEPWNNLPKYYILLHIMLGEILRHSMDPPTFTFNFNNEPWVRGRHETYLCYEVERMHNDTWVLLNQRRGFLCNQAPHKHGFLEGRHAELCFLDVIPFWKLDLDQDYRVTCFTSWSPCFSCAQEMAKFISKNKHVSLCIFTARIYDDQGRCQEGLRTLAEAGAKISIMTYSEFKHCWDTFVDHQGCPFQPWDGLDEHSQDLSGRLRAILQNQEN
DNA dC->dU-editing enzyme APOBEC-3A, sequence (P31941 whole entry): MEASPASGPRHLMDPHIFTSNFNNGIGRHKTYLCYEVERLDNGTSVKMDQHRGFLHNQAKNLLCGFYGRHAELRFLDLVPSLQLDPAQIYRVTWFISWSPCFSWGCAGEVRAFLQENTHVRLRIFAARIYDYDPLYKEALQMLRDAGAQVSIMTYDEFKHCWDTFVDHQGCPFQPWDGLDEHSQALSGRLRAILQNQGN
Dual specificity protein kinase CLK1, sequence (P49759 whole entry): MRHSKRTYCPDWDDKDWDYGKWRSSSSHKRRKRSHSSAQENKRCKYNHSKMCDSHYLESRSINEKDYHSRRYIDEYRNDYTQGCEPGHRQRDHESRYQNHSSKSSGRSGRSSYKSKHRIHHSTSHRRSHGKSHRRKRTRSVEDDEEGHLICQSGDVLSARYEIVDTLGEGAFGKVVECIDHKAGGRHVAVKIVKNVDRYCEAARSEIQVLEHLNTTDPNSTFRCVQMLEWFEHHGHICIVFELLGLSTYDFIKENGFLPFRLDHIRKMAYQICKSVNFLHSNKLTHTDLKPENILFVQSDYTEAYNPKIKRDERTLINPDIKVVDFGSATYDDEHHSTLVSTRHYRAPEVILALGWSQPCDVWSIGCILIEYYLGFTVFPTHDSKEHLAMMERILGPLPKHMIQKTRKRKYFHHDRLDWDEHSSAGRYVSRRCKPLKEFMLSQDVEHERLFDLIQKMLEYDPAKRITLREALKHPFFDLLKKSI
Cyclin-dependent kinase 5/CDK5 activator 1, sequence (Q00535 whole entry): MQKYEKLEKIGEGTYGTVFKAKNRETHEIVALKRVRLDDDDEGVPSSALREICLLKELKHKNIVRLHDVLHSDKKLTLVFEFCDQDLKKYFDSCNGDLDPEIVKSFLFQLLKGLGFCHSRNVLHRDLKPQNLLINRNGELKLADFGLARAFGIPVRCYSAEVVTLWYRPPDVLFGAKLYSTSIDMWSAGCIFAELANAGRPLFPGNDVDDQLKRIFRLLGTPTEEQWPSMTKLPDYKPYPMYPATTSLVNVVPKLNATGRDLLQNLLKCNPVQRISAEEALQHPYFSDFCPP
Cyclin-dependent kinase 5/CDK5 activator 1, sequence (Q15078 whole entry, further chain): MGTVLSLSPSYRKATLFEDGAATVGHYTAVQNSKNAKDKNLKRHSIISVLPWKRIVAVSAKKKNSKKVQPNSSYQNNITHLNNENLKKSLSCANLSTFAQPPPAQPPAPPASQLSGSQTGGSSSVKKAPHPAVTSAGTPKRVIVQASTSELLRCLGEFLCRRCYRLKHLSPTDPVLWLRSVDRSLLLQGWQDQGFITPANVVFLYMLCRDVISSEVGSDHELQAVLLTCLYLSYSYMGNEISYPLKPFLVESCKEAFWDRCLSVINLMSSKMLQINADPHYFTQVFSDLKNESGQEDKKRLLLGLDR
Sphingosine 1-phosphate receptor 3, sequence (Q99500 whole entry): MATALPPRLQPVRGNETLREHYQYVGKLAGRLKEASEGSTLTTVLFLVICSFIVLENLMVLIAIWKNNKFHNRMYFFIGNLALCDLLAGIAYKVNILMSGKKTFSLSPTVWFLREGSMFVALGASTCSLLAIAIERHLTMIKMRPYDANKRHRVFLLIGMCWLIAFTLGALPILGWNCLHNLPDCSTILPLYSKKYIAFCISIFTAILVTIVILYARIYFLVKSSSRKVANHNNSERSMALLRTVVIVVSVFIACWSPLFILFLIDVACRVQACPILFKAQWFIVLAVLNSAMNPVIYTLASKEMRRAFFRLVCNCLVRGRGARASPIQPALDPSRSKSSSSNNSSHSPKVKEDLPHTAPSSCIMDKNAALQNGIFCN
Glycogen synthase kinase-3 alpha, sequence (P49840 whole entry): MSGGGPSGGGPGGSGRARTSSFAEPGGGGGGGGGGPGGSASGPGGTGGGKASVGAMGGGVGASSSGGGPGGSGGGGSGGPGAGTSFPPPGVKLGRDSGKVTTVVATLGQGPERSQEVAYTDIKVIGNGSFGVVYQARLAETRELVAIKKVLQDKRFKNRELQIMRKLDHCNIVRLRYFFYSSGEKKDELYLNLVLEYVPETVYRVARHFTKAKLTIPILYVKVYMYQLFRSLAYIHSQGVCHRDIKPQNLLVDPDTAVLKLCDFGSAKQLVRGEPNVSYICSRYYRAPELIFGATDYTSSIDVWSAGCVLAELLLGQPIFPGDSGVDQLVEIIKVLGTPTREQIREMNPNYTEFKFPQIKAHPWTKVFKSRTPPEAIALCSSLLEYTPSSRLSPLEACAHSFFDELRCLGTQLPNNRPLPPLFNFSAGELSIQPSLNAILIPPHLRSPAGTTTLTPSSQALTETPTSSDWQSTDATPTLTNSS
72 kDa type IV collagenase, sequence (P08253 whole entry): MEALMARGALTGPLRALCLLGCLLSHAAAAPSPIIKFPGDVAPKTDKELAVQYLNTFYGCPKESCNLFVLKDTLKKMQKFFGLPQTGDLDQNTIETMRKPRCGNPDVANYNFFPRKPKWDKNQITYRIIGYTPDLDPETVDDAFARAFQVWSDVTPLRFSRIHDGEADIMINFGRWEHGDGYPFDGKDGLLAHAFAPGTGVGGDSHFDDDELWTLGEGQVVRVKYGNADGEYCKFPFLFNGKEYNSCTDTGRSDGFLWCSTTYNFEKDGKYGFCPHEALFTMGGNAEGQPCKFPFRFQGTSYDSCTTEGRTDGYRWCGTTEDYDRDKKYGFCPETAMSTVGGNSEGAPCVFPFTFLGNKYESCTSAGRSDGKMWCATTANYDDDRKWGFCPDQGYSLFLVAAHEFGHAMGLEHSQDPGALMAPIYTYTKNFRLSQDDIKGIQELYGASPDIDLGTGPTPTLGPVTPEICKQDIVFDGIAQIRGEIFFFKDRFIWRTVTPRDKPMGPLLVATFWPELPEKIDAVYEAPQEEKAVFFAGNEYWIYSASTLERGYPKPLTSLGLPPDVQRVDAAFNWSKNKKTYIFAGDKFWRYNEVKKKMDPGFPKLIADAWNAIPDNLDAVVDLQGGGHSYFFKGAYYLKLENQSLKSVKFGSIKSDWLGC
26S proteasome non-ATPase regulatory subunit 14, sequence (O00487 whole entry): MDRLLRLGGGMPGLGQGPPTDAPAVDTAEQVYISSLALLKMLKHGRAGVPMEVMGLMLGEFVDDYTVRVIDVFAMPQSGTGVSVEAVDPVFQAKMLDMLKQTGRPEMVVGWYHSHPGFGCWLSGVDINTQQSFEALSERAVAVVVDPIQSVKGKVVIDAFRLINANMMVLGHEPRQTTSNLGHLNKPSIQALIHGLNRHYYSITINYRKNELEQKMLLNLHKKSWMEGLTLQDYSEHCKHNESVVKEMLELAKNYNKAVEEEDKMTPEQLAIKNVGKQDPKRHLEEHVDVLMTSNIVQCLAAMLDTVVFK

In general, AC50 refers to the midpoint of the concentration-response curve, whichever way the signal moves. For the compound `O=C(CSc1ccc2nnc(-c3cccs3)n2n1)N1CCCC1`, the concentration at half-maximal activity (AC50) was 2.08 µM (active) in assay [1], 0.742 µM (active) in assay [2] and 78.4 µM (active) in assay [3].
Regarding `O=C1NC(=O)N(c2cccc3ccccc23)C(=O)/C1=C\NN1CCCCC1c1cccnc1` (stereo unspecified), the results for the IC50 (in assay [4]; in [5]; at Prothrombin) were 27.4 µM (active), > 100 µM (inactive) and 59.6 µM (active), respectively.
`Cc1ccc(C(=O)N2CCN(c3ccccn3)CC2)cc1`: the half-maximal activity concentration (AC50) is 10.4 µM (active) in the assay on Candida albicans [6] and 0.0979 µM (active) with Candida albicans [7].
`CCN1C(=O)/C(=C2/SC(C)=C(C)N2CC)SC1=S`: the IC50 is > 66.2 µM (inactive) in the assay with CHO-K1; > 49.8 µM (inactive) in [8]; 3.15 µM (active) in assay [9]; 14.7 µM (inactive) in [10]; > 66 µM (inactive) in [11]; > 66 µM (inactive) in assay [12]. For the same compound, the IC50 was > 88.8 µM (inactive) on Orexin receptor type 2 [13] and > 50 µM (inactive) at Orexin receptor type 2 [14].
For the compound `c1cncc(CNc2nccc(-c3ccc4[nH]ncc4c3)n2)c1`, the values for the AC50 in assay [15] and in assay [16] were 3.52 µM (active) and 0.0402 µM (active), respectively.
As usually defined, the EC50 is the concentration needed to bring the measured effect to its halfway point. Consider `O=C(c1cc(C2CC2)on1)N(C1CCCCCC1)C1CCCC1`, for which the EC50 in assay [17] and in assay [18] was > 50 µM (inactive) throughout.
Consider `CN(CC1CCCN(CCc2ccc(Cl)cc2)C1)C(=O)c1cc2ncccn2n1` (stereo unspecified), for which the IC50 in assay [19] and in [20] was > 99 µM (inactive) each time.
Take `C/N=C1/S/C(=C/c2cc(C)n(-c3ccc(F)cc3F)c2C)C(=O)N1C`: the half-maximal effective concentration (EC50) in assay [21] is 4.47 µM (active); in assay [22] it was > 25 µM (inactive); in assay [23], > 25 µM (inactive); in assay [24], > 25 µM (inactive).
